# Target: T1, human Kir2.1 (Homo sapiens, UniProt P63252)
# T1 construct: gene KCNJ2; tags kept
# T1 sequence (P63252 1-427): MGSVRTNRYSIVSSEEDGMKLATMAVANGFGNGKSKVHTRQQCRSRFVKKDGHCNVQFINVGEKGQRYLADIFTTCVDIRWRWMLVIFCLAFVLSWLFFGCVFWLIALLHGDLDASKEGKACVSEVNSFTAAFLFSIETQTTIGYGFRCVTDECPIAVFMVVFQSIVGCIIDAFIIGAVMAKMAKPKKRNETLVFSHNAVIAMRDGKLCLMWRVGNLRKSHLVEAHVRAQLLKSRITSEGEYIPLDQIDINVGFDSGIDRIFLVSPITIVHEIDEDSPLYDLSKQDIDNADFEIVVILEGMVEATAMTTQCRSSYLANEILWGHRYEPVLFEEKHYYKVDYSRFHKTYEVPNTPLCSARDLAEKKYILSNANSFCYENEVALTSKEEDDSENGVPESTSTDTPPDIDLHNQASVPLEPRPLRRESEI
# Assay: […]+ uptake into proteoliposomes
# Assay type: biochemical
smiles,measurement,value
CC(C)CCC[C@@H](C)[C@H]1CC[C@H]2[C@@H]3CC=C4C[C@@H](O)CC[C@]4(C)[C@H]3CC[C@]12C [cholesterol],% reduction of channel activity,~ 45%

# Source: paper PMC3084843 (PLoS ONE, 2011)
